In patent US20090148907A1, “NOVEL FRUCTOFURANOSIDASE ACTIVITY FOR OBTAINING THE PREBIOTIC OLIGOSACCHARIDE 6-KESTOSE” (CONSEJO SUPERIOR DE INVESTIGACIONES CIENTIFICAS, priority 2005, published 2009):

Key:
Assay type in all cases: biochemical
[1] = target: T1, Fructofuranosidase activity of the extracellular fraction of S. occidentalis (Schwanniomyces occidentalis, UniProt P24133); assay: Fructofuranosidase activity of the extracellular fraction on different carbohydrates (glucose release, glucose oxidase-peroxidase); details: extracellular fraction concentrated (30 kDa filter) and dialysed; activity on the named substrate
T1 construct: the enzyme object of the invention is extracellularly released; endogenous in cells; host or cells: Schwanniomyces occidentalis (ATCC26077 named) grown in lactose medium; the cell-free supernatant was concentrated by 30 kDa tangential filtration and dialysed
T1 sequence (P24133 other isoform, or with tags, fused parts or gaps with the stated changes): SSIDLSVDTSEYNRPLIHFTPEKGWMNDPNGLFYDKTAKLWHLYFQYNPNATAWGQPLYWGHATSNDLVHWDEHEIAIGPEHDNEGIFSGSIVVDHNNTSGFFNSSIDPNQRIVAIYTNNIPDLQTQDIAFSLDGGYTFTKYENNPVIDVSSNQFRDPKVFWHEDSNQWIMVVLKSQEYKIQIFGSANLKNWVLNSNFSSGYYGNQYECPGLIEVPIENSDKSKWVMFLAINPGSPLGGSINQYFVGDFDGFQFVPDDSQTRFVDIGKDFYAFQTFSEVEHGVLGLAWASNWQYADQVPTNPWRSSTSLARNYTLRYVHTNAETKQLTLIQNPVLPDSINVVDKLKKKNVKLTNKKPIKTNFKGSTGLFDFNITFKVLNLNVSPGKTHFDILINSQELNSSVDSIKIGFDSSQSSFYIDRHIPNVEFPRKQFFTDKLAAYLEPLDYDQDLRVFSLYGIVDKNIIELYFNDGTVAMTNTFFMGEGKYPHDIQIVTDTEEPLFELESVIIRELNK
Protocol: (§1) The cell free fraction was obtained by centrifugation (F-0) of a culture of S. occidentalis ATCC26077 grown at 29° C. and 235 rpm. Fructofuranosidase activity was assayed in the latter, determining the glucose release on different substrates. A colorimetric assay and the standard methodology were used. The released glucose was quantified using the glucose oxidase-peroxidase coupled reaction: 0.4 ml of the solution to be determined was mixed with 0.1 ml of A:B (20:1) solution (A: 0.85 U/ml glucose oxidase, 0.40 U/ml peroxidase in sodium phosphate buffer pH 5; B: 0.6% O-dianisidine). It was incubated for 30 minutes at 37° C. and spectrophotometrically quantified at 450 nm. A standard glucose curve (0 to 100 μg/ml) was used. The fructofuranosidase activity unit is defined in μmol/ml min of glucose determined in the described conditions.
The cell free fraction, obtained by centrifugation, of a culture of S. occidentalis grown in lactose medium: 0.3% (w/v) YNB (yeast nitrogen base w/o amino acids, DIFCO), 3.5% (w/v) bactopeptone (DIFCO), 0.5% (w/v) KH2 PO4, 1% (w/v) MgSO4.7H2O, 1% (w/v) (NH4)SO4, and 2% lactose as a carbon source (R. D. Klein et al., “Purification and characterization of invertase from to novel industrial yeast, Schwanniomyces occidentalis”, Prep. Biochem, 1989, vol 19, pp. 293-319), grown until an optical density of 8.34 OD 660 nm, was concentrated using a tangential filtration system (30 kDa filter) followed by dialysis against 20 mM HCl-Tris pH 7 for 2 hours at a temperature of 4° C. and was assayed on different substrates.

[2] = target: T2, Fructofuranosidase activity of the F-3 fraction of S. occidentalis (Schwanniomyces occidentalis, UniProt P24133); assay: Fructofuranosidase (hydrolytic) activity of the purified enzyme F-3 on different substrates; details: purified protein F-3; 1% substrate
T2 construct: the enzyme object of the invention is extracellularly released; endogenous in cells; host or cells: Schwanniomyces occidentalis culture supernatant; concentrated (F-1), then DEAE-Sephacel at pH 7 (F-2) and at pH 5 (F-3)
T2 sequence (P24133 other isoform, or with tags, fused parts or gaps with the stated changes): as above
Protocol: as §1
The hydrolytic activity of the purified enzyme (F-3), following the described method, was assayed on different substrates. The maximum activity level is obtained on sucrose. Activity on lactose, leucrose, turanose or palatinose was not observed.

[3] = target: T3, fructofuranosidase of S. occidentalis (enzymatic concentrate F-1) (Schwanniomyces occidentalis, UniProt P24133); assay: Transfructosidase (transglycosylation) activity of enzymatic concentrate F-1 on sucrose, HPLC; details: for Composition of the system: maximum point of FOS production (4 h), F-1 5 U/ml; for Composition of the system / Composition of the reaction mixture: 50° C.; for Composition of the reaction mixture: F1 5 U/ml, pH 5.6
T3 construct: the enzyme object of the invention is extracellularly released; endogenous in cells; host or cells: Schwanniomyces occidentalis (ATCC26077 named) grown in lactose medium; the cell-free supernatant was concentrated by 30 kDa tangential filtration and dialysed
T3 sequence (P24133 other isoform, or with tags, fused parts or gaps with the stated changes): as above
Protocol: The transglycosylation activity of the enzymatic concentrate obtained by ultrafiltration (F-1) was assayed. A reaction was prepared using a high concentration of sucrose (510 g/l), to favor the formation of glycosidic bonds in detriment of the hydrolysis reaction, and a final activity enzymatic in the reaction mixture of approximately 5 U/ml. […] On one hand, fructose (peak 1) and glucose (peak 2) are formed as hydrolytic products. On the other hand, two trisaccharides are obtained: a majority trisaccharide (peak 4), identified as 6-kestose [β-D-Fru-(2→6)-β-D-Fru-(2→1)-α-D-Glu] and another minority trisaccharide (peak 5), identified as 1-kestose. [β-D-Fru-(2→1)-β-D-Fru-(2→1)-α-D-Glu]. The sucrose that has not reacted corresponds to peak 3.
It is observed that the 6-kestose/1-kestose molar ratio reaches a maximum value of 3.3 between 4 and 6 hours of reaction.
A high concentration solution of sucrose (510 g/l) in 0.2 M sodium acetate buffer pH 5.6 was prepared. The fructofuranosidase was added until a final concentration in the reaction mixture of 5 U/ml (one unit U is the enzymatic activity corresponding to release of a micromole of reducing sugars per minute, using 100 g/l of sucrose as substrate, in 0.2 M sodium acetate buffer pH 5.6, at 50° C.). The reaction mixture was incubated for 24 hours at 50° C., with orbital stirring at 700 rpm. Aliquots were extracted at different times, incubated for 5 minutes at 80° C. to inactivate the enzyme, diluted 1:2 (v/v) with water, centrifuged for 5 minutes at 6000 rpm in an eppendorf tube with a 0.45 μm filter and analyzed by HPLC liquid chromatography. The profile of the products formed is seen in FIG. 5. It is observed that the fructofuranosidase of S. occidentalis has transfer activity (transfructosylation). Two trisaccharides are obtained: one majority trisaccharide, 6-kestose [3-D-Fru-(2→6)-β-D-Fru-(2→1)-α-D-Glu]and another minority trisaccharide, identified as 1-kestose [β-D-Fru-(2→1)-β-D-Fru-(2→1)-α-D-Glu]. In the maximum point of FOS production (4 h), the composition of the system was: 8.7% fructose, 11.9% glucose, 70.8% sucrose, 2.0% 1-kestose and 6.6% 6-kestose.

[4] = target: T4, fructofuranosidase of S. occidentalis (pure enzyme F-3) (Schwanniomyces occidentalis, UniProt P24133); assay: Transfructosidase (transglycosylation) activity of pure enzyme F-3 on sucrose, HPLC; details: for Composition of the system: final reaction time (144 h), F-3 0.5 U/ml, 50° C.
T4 construct: the enzyme object of the invention is extracellularly released; endogenous in cells; host or cells: Schwanniomyces occidentalis culture supernatant; concentrated (F-1), then DEAE-Sephacel at pH 7 (F-2) and at pH 5 (F-3)
T4 sequence (P24133 other isoform, or with tags, fused parts or gaps with the stated changes): as above
Protocol: The transglycosylation activity of the pure enzyme (fraction F-3) was assayed. A reaction was prepared using a high concentration of sucrose (510 g/l) and a final enzymatic activity in the reaction mixture of approximately 0.5 U/ml. […] It is seen that the profile of the obtained products is very similar in both cases, specifically the 6-kestose/1-kestose ratio that was obtained was 3.3.
After 144 hours of reaction, 42.6 g/l of FOS were obtained. The total percentage (w/w) of fructooligosaccharides was 8.4% this value being with respect to the total weight of carbohydrates in the medium.
A high concentration solution of sucrose ([…]) in 0.2 M sodium acetate buffer pH 5.6 was prepared. The fructofuranosidase was added until a final concentration in the reaction mixture of 0.5 U/ml (one unit U is the enzymatic activity corresponding to releasing a micromole of reducing sugars per minute, using 100 g/l of sucrose as substrate, in 0.2 M sodium acetate buffer pH 5.6, at 50° C.). The reaction mixture was incubated for 144 hours at 50° C., with orbital stirring at 700 rpm. Aliquots were extracted at different times, incubated for 5 minutes at 80° C. to inactivate the enzyme, diluted 1:2 (v/v) with water centrifuged for 5 minutes at 6000 rpm in an eppendorf tube with a 0.45 μm filter and analyzed by HPLC liquid chromatography. The profile of the products formed is seen in FIG. 7. Two trisaccharides were obtained: a majority trisaccharide, identified as 6-kestose, and another minority trisaccharide, identified as 1-kestose. At the final reaction time (144 h), the composition of the system was: 12.7% fructose, 14.80/glucose. 64.1% sucrose, 2.4% 1-kestose and 5.9% 6-kestose).

Row | SMILES | Specific activity [1] | Activity specific [2] | Composition of the system [3] | Composition of the reaction mixture ([3]; reaction time 1 h) | Composition of the reaction mixture ([3]; reaction time 1.5 h) | Composition of the reaction mixture ([3]; reaction time 4 h) | Composition of the reaction mixture ([3]; reaction time 6 h) | Composition of the reaction mixture ([3]; reaction time 24 h) | Composition of the system [4] | 6-kestose/1-kestose molar ratio, maximum value ([3]; between 4 and 6 hours of reaction, F-1) | 6-kestose/1-kestose ratio ([4]; pure enzyme F-3 0.5 U/ml, 144 hours)
1 | OC[C@H]1O[C@@](CO)(OC[C@@]2(O[C@H]3O[C@H](CO)[C@@H](O)[C@H](O)[C@H]3O)O[C@H](CO)[C@@H](O)[C@@H]2O)[C@@H](O)[C@@H]1O [1-kestose, β-D-Fru-(2→1)-β-D-Fru-(2→1)-α-D-Glu] | 2.2 mU/μg | 6.3 mU/μg | 2.0% | 2.8 grams/liter | 6.4 grams/liter | 10.1 grams/liter | 9.6 grams/liter | 4.5 grams/liter | 2.4% |  | 
2 | OC[C@H]1O[C@@](CO)(O[C@H]2O[C@H](CO)[C@@H](O)[C@H](O)[C@H]2O)[C@@H](O)[C@@H]1O [sucrose, α-D-Glu-(1→2)-β-D-Fru] | 24 mU/μg | 109 mU/μg | 70.8% | 487.3 grams/liter | 453.8 grams/liter | 361.6 grams/liter | 343.7 grams/liter | 240.9 grams/liter | 64.1% |  | 
3 | OC[C@H]1O[C@@](CO)(OC[C@H]2O[C@@](CO)(O[C@H]3O[C@H](CO)[C@@H](O)[C@H](O)[C@H]3O)[C@@H](O)[C@@H]2O)[C@@H](O)[C@@H]1O [6-kestose, β-D-Fru-(2→6)-β-D-Fru-(2→1)-α-D-Glu] |  |  | 6.6% | 5.4 grams/liter | 12.7 grams/liter | 33.5 grams/liter | 31.0 grams/liter | 10.6 grams/liter | 5.9% | 3.3 | 3.3
4 | O=C(CO)[C@@H](O)[C@H](O)[C@H](O)CO [fructose] |  |  | 8.7% | 5.3 grams/liter | 16.8 grams/liter | 44.3 grams/liter | 54.8 grams/liter | 113.6 grams/liter | 12.7% |  | 
